Measurements as given in ChEMBL document CHEMBL5360613, “Unveiling New KRASG12D Inhibitors: A Promising Approach for Pancreatic Cancer Therapy” (ACS Med Chem Lett, 2023).

Target: GTPase KRas (Homo sapiens, UniProt P01116, G12D)
Assay: Inhibition of KRAS G12D mutant in human PANC-1 cells assessed as reduction in phosphorylation of ERK 1/2 level incubated for 3 hrs
Type: cell-based

GTPase KRas, sequence (P01116 whole entry G12D): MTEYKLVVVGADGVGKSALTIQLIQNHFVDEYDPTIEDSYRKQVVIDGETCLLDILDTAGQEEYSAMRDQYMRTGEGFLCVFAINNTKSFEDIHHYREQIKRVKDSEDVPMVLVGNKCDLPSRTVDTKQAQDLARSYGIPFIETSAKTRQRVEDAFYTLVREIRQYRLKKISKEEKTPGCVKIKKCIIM

Row | Structure (SMILES) | IC50 [nM]
1 | C#Cc1c(F)ccc2cc(O)cc(-c3ncc4c(N5C[C@H]6CC[C@@H](C5)N6)cc(C#C[C@@]56CCCN5C[C@H](F)C6)nc4c3F)c12 | 439
2 | Oc1cc(-c2ncc3c(N4C[C@H]5CC[C@@H](C4)N5)cc(OC[C@@]45CCCN4C[C@H](F)C5)nc3c2F)c2c(F)cccc2c1 | 40
3 | C#Cc1c(F)ccc2cc(O)cc(-c3ncc4c(N5CC6CCC(C)(C5)N6)cc(OC[C@@]56CCCN5C[C@H](F)C6)nc4c3F)c12 (stereo partly drawn) | 24
4 | C#Cc1cccc2cc(O)cc(-c3ncc4c(N5C[C@H]6CC[C@@H](C5)N6)cc(OC[C@@]56CCCN5C[C@H](F)C6)nc4c3F)c12 | 9.5
5 | Oc1cc(N2CCc3c(nc(OCC45CCCN4CCC5)nc3N3C[C@H]4CC[C@@H](C3)N4)C2)c2c(Cl)cccc2c1 | 15
6 | C#Cc1c(F)ccc2cc(O)cc(-c3ncc4c(N5C[C@H]6CC[C@@H](C5)N6)cc(OC[C@@]56CCCN5C[C@H](F)C6)nc4c3F)c12 | 7.9

The remaining lines, values ahead:

Row | IC50 [nM] | Structure (SMILES)
7 | 46 | CCc1c(F)ccc2cc(O)cc(-c3ncc4c(N5C[C@H]6CC[C@@H](C5)N6)cc(OC[C@@]56CCCN5C[C@H](F)C6)nc4c3F)c12
8 | 305 | CCc1c(F)ccc2cc(O)cc(-c3ncc4c(N5C[C@H]6CC[C@@H](C5)N6)cc(C#C[C@@]56CCCN5C[C@H](F)C6)nc4c3F)c12
